Reference: PubChem BioAssay (NCI)
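GI50: concentration for 50% inhibition of growth. TGI denotes the concentration required for complete inhibition of growth.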

What was measured:
Assay in all cases: growth of human tumour cells (NCI), 384-well format
OVCAR-3 ovarian = test system: OVCAR-3 ovarian
HOP-92 NSCLC = test system: HOP-92 NSCLC
UACC-257 melanoma = test system: UACC-257 melanoma
NCI-H226 lung = test system: NCI-H226 lung
EKVX NSCLC = test system: EKVX NSCLC
MOLT-4 leukemia = test system: MOLT-4 leukemia
M14 melanoma = test system: M14 melanoma
T-47D breast = test system: T-47D breast
HS 578T breast = test system: HS 578T breast
CAKI-1 renal = test system: CAKI-1 renal
MDA-MB-468 breast = test system: MDA-MB-468 breast
HT29 colon = test system: HT29 colon
UO-31 renal = test system: UO-31 renal
OVCAR-4 ovarian = test system: OVCAR-4 ovarian
NCI-H322M lung = test system: NCI-H322M lung
SNB-19 CNS = test system: SNB-19 CNS
A549 NSCLC = test system: A549 NSCLC
HL-60(TB) leukemia = test system: HL-60(TB) leukemia
OVCAR-5 ovarian = test system: OVCAR-5 ovarian
HOP-62 NSCLC = test system: HOP-62 NSCLC
SNB-75 CNS = test system: SNB-75 CNS
SW-620 colon = test system: SW-620 colon
786-0 renal = test system: 786-0 renal
SF-268 CNS = test system: SF-268 CNS
SK-MEL-5 melanoma = test system: SK-MEL-5 melanoma
RXF 393 renal = test system: RXF 393 renal
NCI-H522 lung = test system: NCI-H522 lung
HCT-15 colon = test system: HCT-15 colon
NCI/ADR-RES ovarian = test system: NCI/ADR-RES ovarian
OVCAR-8 ovarian = test system: OVCAR-8 ovarian
MDA-MB-231 breast = test system: MDA-MB-231 breast
SK-MEL-28 melanoma = test system: SK-MEL-28 melanoma
NCI-H460 NSCLC = test system: NCI-H460 NSCLC
KM12 colon = test system: KM12 colon
UACC-62 melanoma = test system: UACC-62 melanoma
ACHN renal = test system: ACHN renal
MDA-MB-435 melanoma = test system: MDA-MB-435 melanoma
MALME-3M melanoma = test system: MALME-3M melanoma
SF-539 CNS = test system: SF-539 CNS
SN12C renal = test system: SN12C renal
TK-10 renal = test system: TK-10 renal
IGROV1 ovarian = test system: IGROV1 ovarian
SR leukemia = test system: SR leukemia
COLO 205 colon = test system: COLO 205 colon
U251 glioblastoma = test system: U251 glioblastoma
BT-549 breast = test system: BT-549 breast
PC-3 prostate = test system: PC-3 prostate
MCF7 breast = test system: MCF7 breast
A498 renal = test system: A498 renal
K-562 leukemia = test system: K-562 leukemia
SK-OV-3 ovarian = test system: SK-OV-3 ovarian
SF-295 CNS = test system: SF-295 CNS
RPMI-8226 leukemia = test system: RPMI-8226 leukemia
CCRF-CEM leukemia = test system: CCRF-CEM leukemia
LOX IMVI melanoma = test system: LOX IMVI melanoma
NCI-H23 lung = test system: NCI-H23 lung
HCC-2998 colon = test system: HCC-2998 colon
DU-145 prostate = test system: DU-145 prostate

SMILES: CNC(=O)CN1CCC(Oc2cc3c(Nc4cccc(Cl)c4F)ncnc3cc2OC)CC1
- GI50 (OVCAR-3 ovarian): 1.95 µM
- TGI (OVCAR-3 ovarian): 14.8 µM
- GI50 (HOP-92 NSCLC): 4.39 µM
- TGI (HOP-92 NSCLC): 20.2 µM
- GI50 (UACC-257 melanoma): 14.6 µM
- TGI (UACC-257 melanoma): 28.1 µM
- GI50 (NCI-H226 lung): 11.1 µM
- TGI (NCI-H226 lung): 29.9 µM
- GI50 (EKVX NSCLC): 0.0357 µM
- TGI (EKVX NSCLC): 4.33 µM
- GI50 (MOLT-4 leukemia): 14.1 µM
- TGI (MOLT-4 leukemia): 27.2 µM
- GI50 (M14 melanoma): 15.3 µM
- TGI (M14 melanoma): 29.1 µM
- GI50 (T-47D breast): 0.38 µM
- TGI (T-47D breast): 6.28 µM
- GI50 (HS 578T breast): 4.07 µM
- TGI (HS 578T breast): 16.1 µM
- GI50 (CAKI-1 renal): 0.915 µM
- TGI (CAKI-1 renal): 13.5 µM
- GI50 (MDA-MB-468 breast): < 0.01 µM
- GI50 (HT29 colon): 11.3 µM
- TGI (HT29 colon): 24.6 µM
- GI50 (UO-31 renal): 12.4 µM
- TGI (UO-31 renal): > 100 µM
- GI50 (OVCAR-4 ovarian): 3.28 µM
- TGI (OVCAR-4 ovarian): 24.3 µM
- GI50 (NCI-H322M lung): < 0.01 µM
- TGI (NCI-H322M lung): 1.89 µM
- GI50 (SNB-19 CNS): 14.3 µM
- TGI (SNB-19 CNS): 45.2 µM
- GI50 (A549 NSCLC): 2.31 µM
- TGI (A549 NSCLC): 17.7 µM
- GI50 (HL-60(TB) leukemia): 18.9 µM
- TGI (HL-60(TB) leukemia): 33 µM
- GI50 (OVCAR-5 ovarian): 0.906 µM
- TGI (OVCAR-5 ovarian): 10.9 µM
- GI50 (HOP-62 NSCLC): 8.39 µM
- TGI (HOP-62 NSCLC): 27.5 µM
- GI50 (SNB-75 CNS): 9.75 µM
- TGI (SNB-75 CNS): 34.1 µM
- GI50 (SW-620 colon): 13.9 µM
- TGI (SW-620 colon): 27.4 µM
- GI50 ([…]-0 renal): 5.7 µM
- TGI (786-0 renal): 24.6 µM
- GI50 (SF-268 CNS): 9.9 µM
- TGI (SF-268 CNS): 36.4 µM
- GI50 (SK-MEL-5 melanoma): 10.2 µM
- TGI (SK-MEL-5 melanoma): 21.9 µM
- GI50 (RXF 393 renal): 10.1 µM
- TGI (RXF 393 renal): 25.5 µM
- GI50 (NCI-H522 lung): 0.0493 µM
- TGI (NCI-H522 lung): 11.6 µM
- GI50 (HCT-15 colon): 10.8 µM
- TGI (HCT-15 colon): 22.8 µM
- GI50 (NCI/ADR-RES ovarian): 12.9 µM
- TGI (NCI/ADR-RES ovarian): 29.4 µM
- GI50 (OVCAR-8 ovarian): 13.1 µM
- TGI (OVCAR-8 ovarian): 43.2 µM
- GI50 (MDA-MB-231 breast): 4.2 µM
- TGI (MDA-MB-231 breast): 18.1 µM
- GI50 (SK-MEL-28 melanoma): 13.9 µM
- TGI (SK-MEL-28 melanoma): 27 µM
- GI50 (NCI-H460 NSCLC): 16.3 µM
- TGI (NCI-H460 NSCLC): 34.1 µM
- GI50 (KM12 colon): 18.7 µM
- TGI (KM12 colon): 35.6 µM
- GI50 (UACC-62 melanoma): 13.9 µM
- TGI (UACC-62 melanoma): 27.1 µM
- GI50 (ACHN renal): 0.0298 µM
- TGI (ACHN renal): 10.7 µM
- GI50 (MDA-MB-435 melanoma): 26.6 µM
- TGI (MDA-MB-435 melanoma): 83.5 µM
- GI50 (MALME-3M melanoma): 12.8 µM
- TGI (MALME-3M melanoma): 26.7 µM
- GI50 (SF-539 CNS): 12.4 µM
- TGI (SF-539 CNS): 25.5 µM
- GI50 (SN12C renal): 0.426 µM
- TGI (SN12C renal): 9.66 µM
- GI50 (TK-10 renal): 0.0537 µM
- TGI (TK-10 renal): 13 µM
- GI50 (IGROV1 ovarian): 0.068 µM
- TGI (IGROV1 ovarian): 1.55 µM
- GI50 (SR leukemia): 15.1 µM
- TGI (SR leukemia): 29.3 µM
- GI50 (COLO 205 colon): 15.3 µM
- TGI (COLO 205 colon): 28.7 µM
- GI50 (U251 glioblastoma): 17.2 µM
- TGI (U251 glioblastoma): 36.3 µM
- GI50 (BT-549 breast): 11.7 µM
- TGI (BT-549 breast): 27.1 µM
- GI50 (PC-3 prostate): 14.7 µM
- TGI (PC-3 prostate): 35 µM
- GI50 (MCF7 breast): 10.3 µM
- TGI (MCF7 breast): 24.9 µM
- GI50 (A498 renal): 12.4 µM
- TGI (A498 renal): 27.2 µM
- GI50 (K-562 leukemia): 10.9 µM
- TGI (K-562 leukemia): 23.3 µM
- GI50 (SK-OV-3 ovarian): 0.383 µM
- TGI (SK-OV-3 ovarian): 11.3 µM
- GI50 (SF-295 CNS): 14.8 µM
- TGI (SF-295 CNS): 28.3 µM
- GI50 (RPMI-8226 leukemia): 9.35 µM
- TGI (RPMI-8226 leukemia): 21.5 µM
- GI50 (CCRF-CEM leukemia): 15.3 µM
- TGI (CCRF-CEM leukemia): 29.9 µM
- GI50 (LOX IMVI melanoma): 10.7 µM
- TGI (LOX IMVI melanoma): 22.6 µM
- GI50 (NCI-H23 lung): 10.7 µM
- TGI (NCI-H23 lung): 30.8 µM
- GI50 (HCC-2998 colon): 14.9 µM
- TGI (HCC-2998 colon): 28.4 µM
- GI50 (DU-145 prostate): 3.88 µM
- TGI (DU-145 prostate): 43.4 µM
